Consider 6 molecules from patent US20260356835A1, “BICYCLIC HETEROARYL COMPOUNDS” (QuantX Biosciences US, Inc., priority 2023, published 2026).

Assay [1] addresses T1, N-his8-TEV-hPARG (389-976) (Homo sapiens, UniProt Q86W56).
T1 construct: N-his8-TEV-hPARG (389-976); His8 (N); TEV protease cleavage site (N); made in house; host or cells: E. coli BL21(DE3)
Briefly: PARG Biochemical Enzymatic Assay (PARG inhibition HTRF assay). To be noted: 62.5 pM PARG, 5 nM Biotin-Parylated PARP1 substrate, 60 minutes preincubation, 10 minutes reaction at 23 °C. As for the experimental part:
PARG Biochemical Enzymatic Assay
TEV-His8-PolyADP-Ribose Polymerase 1 (379-1014) (PARP1) and N-his8-TEV-hPARG (389-976) were used to transform BL21(DE3) competent cells followed by growth for 1 hour at 37 °C and plating on Kanamycin resistant agar plates. A single colony was then inoculated into 1 ml of Luria Broth and expansion into a 1 liter scale for growth at 37 °C for 3 hours. Expression was induced via 0.2 mM IPTG induction for 20 hours at 16 °C in BL21(DE3) E. coli. Purification was then performed using a Nickel column, size exclusion chromatography and HPLC analysis.
For substrate preparation, […] nicked DNA and 2 μM PARP1 protein were mixed for 10 minutes at 25 °C 10 μM biotin-NAD+ and 100 μM NAD+ were then added and incubated for 60 minutes at 30 °C to yield PARylated PARP1 substrate.
For compound screening, compounds were serially diluted to a 3× final concentration in assay buffer (Tris pH7.5 50 mM, KCl 50 mM, Tween-20 0.01%, BSA 0.1 mg/ml, EDTA 3 mM, EGTA 0.4 mM, DTT 1 mM) containing 1% DMSO. A top concentration of 1.5 μM for a 10-point dose response curve using a 1:3 dilution curve was used. 2.5×PARG (156.25 pM working concentration, 62.5 pM final concentration) was prepared in assay buffer and 4 ul added to a 384 well assay plate containing 2 μl of serially diluted compound. The plate was then centrifuged for 10 seconds and incubated for 60 minutes at 23 °C. 4 μl of 2.5× Biotin-Parylated PARP1 (12.5 nM working concentration, 5 nM final concentration) was then added to the plate and incubated for 10 minutes at 23 °C. 4 μl of […] Detection reagent containing 0.44 μg/ml of Streptavidin-Europium cryptate and 4 μg/ml of anti-6His-XL665 monoclonal antibody was added to the plate and incubated for 60 minutes at 23 °C. The Homogeneous Time Resolved Fluorescent (HTRF) signal was then measured on an Envision plate reader using and excitation wavelength of 337 nm and emission wavelengths of 615 nm and 665 nm. Normalized percent inhibition was then calculated using the following equation: % Inhibition normalized=(compound signal-min signal)/(max signal-min signal)*100%, where Maximum signal was substrate only wells and Minimum signal was enzyme and substrate well. IC50 was calculated by fitting % Inhibition values and log of compound concentrations to nonlinear regression (log(inhibitor) vs. response—Variable slope(four parameters)) with GraphPad 9.4.1
For biochemical activity, bracket is denoted as: A<100 nM; 100 nM<B<500 nM; C>500 nM
In general terms: Time-resolved FRET reads energy transfer from a long-lived donor to a nearby acceptor.

The test system of assay [2] is Kuramochi cells. In words: Cellular Viability Assay (5 day Kuramochi cell viability, CellTiter-Glo). The class given is cell-based. Particulars: 5 days, 37 °C, growth inhibition relative to Day 0 (T0) and DMSO. Here is the method:
Kuramochi cells were seeded at a density of 1000 cells per well in a 384-well, white, sterile, clear bottom plate, using a Multidrop liquid dispenser and incubated for 24 hours at 37 °C in a 5% CO2 humidified environment. 24 hours later, compounds were added starting at a top dose of 10 μM for a 9-point dose response curve at a 1:3 dilution using an iDOT HT liquid handler and incubated for 5 days at 37 °C in a 5% CO2 humidified environment. After 5 days and at Day 0, plates were incubated at room temperature for 30 minutes followed by the addition of 30 μl of CellTiter-Glo Reagent. Plates were then mixed for 10 minutes on an orbital shaker followed by incubation at room temperature for 20 minutes. Luminescence was then read using the Envision plate reader. Percent Growth Inhibition was then calculated using the following equation: Percent Growth Inhibition normalized=100−(compound signal−T0)/(max signal−T0)*100%, where Max Signal refers to the DMSO only treated cells and T0 refers to the Day0 viability measurement. Growth Inhibition 50 was then calculated using the following equation: Y=Bottom+(Top−Bottom)/(1+10^((Log IC50−X)*hillslope)).
For cell activity, bracket is denoted as: A<1 uM; 1 uM<B<5 uM; C>5 uM.
A general note: In ATP-based viability assays light output follows the ATP content of the culture.

Each structure is given as a SMILES string. Some results are limits rather than exact numbers.

T1 sequence (Q86W56 389-976): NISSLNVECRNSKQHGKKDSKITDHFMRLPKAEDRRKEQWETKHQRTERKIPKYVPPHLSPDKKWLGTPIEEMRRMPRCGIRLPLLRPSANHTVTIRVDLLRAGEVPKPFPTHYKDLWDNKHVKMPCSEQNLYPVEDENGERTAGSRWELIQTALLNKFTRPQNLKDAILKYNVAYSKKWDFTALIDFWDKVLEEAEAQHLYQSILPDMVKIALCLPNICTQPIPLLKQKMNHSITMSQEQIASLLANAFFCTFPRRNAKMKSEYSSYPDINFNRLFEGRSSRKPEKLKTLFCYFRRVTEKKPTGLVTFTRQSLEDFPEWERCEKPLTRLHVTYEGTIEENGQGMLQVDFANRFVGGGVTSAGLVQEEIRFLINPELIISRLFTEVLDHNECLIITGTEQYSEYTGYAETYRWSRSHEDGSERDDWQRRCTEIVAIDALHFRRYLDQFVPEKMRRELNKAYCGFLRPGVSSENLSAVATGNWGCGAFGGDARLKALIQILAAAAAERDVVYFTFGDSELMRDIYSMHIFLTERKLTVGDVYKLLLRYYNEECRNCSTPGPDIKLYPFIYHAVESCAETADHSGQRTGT

What is called IC50 is the point on the concentration scale where inhibition reaches its midpoint. Low values mean inhibition by little substance, high ones a need for much substance. As for `CC1(NS(=O)(=O)c2cc(N3CCC4(CC3)COC4)n3cnc(-c4nnc(C(F)F)s4)c3c2)CC1` [Example 34, 1-(5-(difluoromethyl)-1,3,4-thiadiazol-2-yl)-N-(1-methylcyclopropyl)-5-(2-oxa-7-azaspiro[3.5]nonan-7-yl)imidazo[1,5-a]pyridine-7-sulfonamide], the IC50 in assay [1] is under 100 nM; in assay [2] it was under 1000 nM.
For `O=S(=O)(NC1(C(F)F)CC1)c1cc(N2CCC3(CC2)COC3)n2cnc(-c3nnc(C(F)F)s3)c2c1` [Example 35, 1-(5-(difluoromethyl)-1,3,4-thiadiazol-2-yl)-N-(1-(difluoromethyl)cyclopropyl)-5-(2-oxa-7-azaspiro[3.5]nonan-7-yl)imidazo[1,5-a]pyridine-7-sulfonamide] the same measures were under 100 nM and under 1000 nM.
Turning to `N#CC1(NS(=O)(=O)c2cc(N3CCC4(CC3)COC4)n3cnc(-c4nnc(C(F)F)s4)c3c2)CC1` [Example 36, N-(1-cyanocyclopropyl)-1-(5-(difluoromethyl)-1,3,4-thiadiazol-2-yl)-5-(2-oxa-7-azaspiro[3.5]nonan-7-yl)imidazo[1,5-a]pyridine-7-sulfonamide], the values for the IC50 in assay [1] and in assay [2] were under 100 nM and under 1000 nM, respectively.
For `O=S(=O)(NC1(C(F)F)CC1)c1cc(N2CCC3(CC2)COC3)c2ncc(-c3nnc(C(F)F)s3)n2c1` [Example 37, 3-(5-(difluoromethyl)-1,3,4-thiadiazol-2-yl)-N-(1-(difluoromethyl)cyclopropyl)-8-(2-oxa-7-azaspiro[3.5]nonan-7-yl)imidazo[1,2-a]pyridine-6-sulfonamide], the figures for the IC50 in assay [1] and in assay [2] were under 100 nM and under 1000 nM, respectively.
For `O=S(=O)(NC1(C(F)F)CC1)c1cc(N2CCC3(CC2)COC3)c2cnc(-c3nnc(C(F)F)s3)n2c1` [Example 39, 3-(5-(difluoromethyl)-1,3,4-thiadiazol-2-yl)-N-(1-(difluoromethyl)cyclopropyl)-8-(2-oxa-7-azaspiro[3.5]nonan-7-yl)imidazo[1,5-a]pyridine-6-sulfonamide], in that order: under 100 nM and under 1000 nM.
Regarding `O=S(=O)(NC1(C(F)F)CC1)c1cc(N2CCC3(CC2)COC3)c2nnc(-c3nnc(C(F)F)s3)n2c1` [Example 40, 3-(5-(Difluoromethyl)-1,3,4-thiadiazol-2-yl)-N-(1-(difluoromethyl)cyclopropyl)-8-(2-oxa-7-azaspiro[3.5]nonan-7-yl)-[1,2,4]triazolo[4,3-a]pyridine-6-sulfonamide], the IC50 was under 100 nM in assay [1] and under 1000 nM in assay [2].
